The conditions of data set [1]: cited from earlier work.
The subject of data set [2] is U87 cells. Put plainly: Mitochondrial alterations measurements (TMRE, NAO). In kind it is cell-based, Human. On the procedure:
(§1) Cell culture: Human glioblastoma-astrocytoma cell line U87 MG from the American Type Culture Collection (reference ATCC-HTB-14) were cultured in Dulbecco's modified eagles medium (DMEM, Gibco Corp) supplemented with 10% fetal calf serum (FCS, Gibco Corp), in a humidified atmosphere with 5% CO2 at 37° C.
Mitochondrial alterations measurements. The red fluorescent dye tetramethylrhodamine ethyl ester (TMRE, Molecular Probes, Invitrogen, Life Technologies) was used to follow variations in mitochondrial membrane potential. This cationic probe accumulates in polarized mitochondria through the electrochemical gradient. Nonyl Acridine Orange (NAO, Molecular Probes, Invitrogen, Life Technologies) was then used as a complementary assay to assess the changes in mitochondrial morphology. Cells were plated on 24 multi-well plates (Becton-Dickinson, 2 cm^2/well) during 24 h and treated with a range of ALK-1 concentrations (0.1; 0.25; 0.375; 0.5; 0.75; 1.0 and 1.5 mM). After 3, 24 or 72 h, cells were resuspended in TMRE (250 nM) or NAO (500 nM) and incubated 30 minutes at 37° C., 5% CO2. Incubation with 0.5 mM of Carbonyl cyanide 3-chlorophenylhydrazone (CCCP, Sigma-Aldrich) was performed as positive control of the mitochondrial depolarization staining. Then, cells were washed and analyzed by flow cytometry. All the experiments were performed three times.

For data set [3], the system named is U87 cells. Put plainly: Oxidative stress (carboxy-H2DCFDA probe, flow cytometry). In kind it is cell-based, Human. The following applies: 3 mM, 1 h. On the procedure:
as §1
Oxidative stress: The cells were grown in a 24 multiwell plate as previously described. Then, cells were dissociated using 0.05% trypsin (Invitrogen, Carlsbad, Calif., USA) and suspended at a density of 1×10^6 cells/mL in carboxy-H2DCFDA (Molecular Probes, Invitrogen, Life Technologies) at 50 μM. After 30 minutes incubation at 37° C., cells were washed with phosphate buffered saline (PBS). Cells were centrifuged and resuspended with cell culture media containing or not 3 mM alkoxyamine with or without trihydroxyethylrutin at 20 or 50 mM. After incubation time the cells were washed and analyzed on a Guava easyCyte flow cytometer/counter.
For orientation: In flow cytometry, cells or beads pass a laser one at a time.

Data set [4] has as its system U87 cells. Put plainly: Cell death analysis by annexin V/propidium iodide staining. In kind it is cell-based, Human. On the procedure:
as §1
Cell death analysis by annexin V/propidium iodide staining. Cell death was detected by annexin V-FITC (Molecular Probes, Invitrogen, Life Technologies) binding to exposed […] (PS) residues at the surface of cells. Cells were treated with ALK-1 at concentrations ranging from 0.1 to 1.5 mM at 37° C. and tested at distinct observation times (3, 24 or 72 h). After treatment, cells were re-suspended in staining buffer containing propidium iodide (PI, 2 μg/mL) and annexin V-FITC. Double-labeling was performed at room temperature for 15 min in darkness. Then, the percentage of viable (IP−/AV−), early apoptotic (IP−/AV+) and late apoptosis/necrotic cells (IP+/AV+) was quantified by flow cytometry. These experiments were performed twice.

A short description of data set [5]: Monitoring of ALK-1 homolysis by Overhauser-enhanced MRI (OMRI). In kind it is physicochemical. The text has this: EPR Cavity and MRI devices. The OMRI experiment were done in a C-shaped 0.2 T MRI system (Magnetom Open Viva, Siemens, Erlangen, Germany) and a resonant TE011 transverse electric mode EPR cavity setup (Bruker, Wissembourg, France) as described previously. The EPR cavity, placed at the center of the magnet, was used to saturate the electron spin transition of the nitroxide SG1 produced upon ALK-1 homolysis. A homemade saddle-shaped MRI coil (28 mm in diameter and 29 mm in length) in the EPR cavity was used for imaging.
Electron spin saturation was carried out at 5.4573 GHz, corresponding to the first line at high field from the center of the EPR spectrum. The proton frequency was 8.24 MHz. Sample temperature was kept at 37° C.
OMRI experiments were performed in two NMR tubes (4 mm inner diameter): one containing 0.8 mM of SG1 nitroxide in phosphate buffer saline (not shown) and the other with 0.8 mM of ALK-1 in DMEM, 10% FCS. ALK-1 homolysis was followed for 48 hours.
Pulse sequences. […] All MR adjustments were done manually, using the same fixed receiver amplification gain for both measurements, without (Soff) and with (Son) HF irradiation, so that signals can be directly compared and Overhauser enhancements (Son/Soff) calculated.
Post-processing. […] Signal intensity was measured in a rectangular region of interest of 2 mm^2 positioned in the NMR tube area. […]

Data set [6] has as its system U87 cells. Put plainly: Viability test (LIVE/DEAD kit, flow cytometry). In kind it is cell-based, Human. On the procedure: as §1
Viability Test: The viability study of U87 cells treated or not with the alkoxyamine was measured by the LIVE/DEAD® Viability/Cytotoxicity Kit (Molecular Probes, Invitrogen, Life Technologies). Briefly, the cells were allowed to grow during 24 h on 24 multiwell plates (Becton-Dickinson, 2 cm^2/well). They were then treated with the alkoxyamine at concentrations ranging from 0.1 to 3 mM and tested for viability at distinct observation times (1, 3, 6, 24 or 72 h). To do this the adherent cells were dissociated from the plate by trypsinization and pelleted by centrifugation. Then, the cells were resuspended at 10^6 cells/mL on calcein-am and ethidium homodimer-1 solution during 20 minutes at room temperature and analyzed on a Guava easyCyte flow cytometer/counter (Millipore). U87 cells viability was also measured after treatment with previously homolysed alkoxyamine. For these experiments, the alkoxyamine was incubated in the culture medium during 72 h at 6 mM without the cells. U87 cells were then treated with different concentrations of this homolysed alkoxyamine for 1 h and a viability test was performed as previously described. The viability test in the presence of the free radical scavenger was carried out with an alkoxyamine concentration of 3 mM and an incubation time of 1 h. U87 cells viability was measured versus increasing concentrations the radical scavenger, trihydroxyethylrutin (Santa Cruz Biotechnology, inc.) namely, 20, 50 or 100 mM.

The subject of data set [7] is U87 cells. Put plainly: Apoptosis detection through caspase-3/-7 assay. In kind it is cell-based, Human. On the procedure: as §1
Apoptosis detection through caspase-3/-7 assay. Quantitative assessment of apoptotic cells was also conducted by the detection of caspase activity using the Vybrant® FAM Caspase-3 and -7 Assay Kit (Molecular Probes, Invitrogen, Life Technologies). Briefly, cells were treated with the previously described ALK-1 concentrations during 3, 24 or 72 h. After the alkoxyamine treatment, the cells were dissociated from the support, washed and incubated 1 h at 37° C. in FLICA working solution. Then, the cells were washed and green fluorescence was measured by flow cytometry. These experiments were performed twice.

With `CCOP(=O)(OCC)C(N(OC(C)c1cc[n+](C)cc1)C(C)(C)C)C(C)(C)C` (stereo not shown) [ALK-1, N-methyl 4-(1-((tert-butyl(1-(diethoxyphosphoryl)-2,2-dimethylpropyl)amino)oxy)ethyl)pyridin-1-ium 4-methylbenzenesulfonate], the “Ea (homolysis activation energy), value reported” value in data set [1] is 25.3 kcal/mol. Moreover, the NAO staining entry in the data set with U87 cells [2] (24 h, ALK-1 concentrations greater than 0.5 mM) is “increased”. Moreover, the “concentration from which the mitochondrial potential drops (TMRE)” value in the data set on U87 cells [2] (all times of observation (3, 24, 72 h)) was not below 0.5 mM. In addition, in the data set with U87 cells [3], the oxidative stress result was “strong oxidative stress”. For the same compound, the “necrotic or apoptotic cells (PI+/AV+)” value with U87 cells [4] (3 h, 1.5 mM) is reported as “most cells were necrotic or apoptotic cells”; in the data set on U87 cells [4] (24 h, 1 mM), 94%. The “PI+/AV+ cells” value in the data set with U87 cells [4] (72 h, 0.5 mM) is on record as “most cells were PI+/AV+”. Moreover, the “Ea (homolysis activation energy)” value in data set [5] (afforded by the OMRI t1/2) was determined as 26.1 kcal/mol. In addition, in data set [5] (cell culture medium (DMEM, 10% FCS), 0.8 mM, culture cell medium, 37° C., OMRI, read-out: experimental t1/2 of homolysis), the half-life at 0.8 mM was approximately 2.08 h. Also, the “cells saved by the free radical scavenger” value in the data set on U87 cells [6] (3 mM alkoxyamine, 1 h, with free radical scavenger (trihydroxyethylrutin)) is 80%. Besides, in the data set with U87 cells [6] (3 mM, one hour), the cells killed entry is reported as “approximately 75%”. Further, the cytotoxic effect result in the data set on U87 cells [6] (0.1 to 3 mM) is reported as “dose-dependent cytotoxic effect”. In addition, the “toxicity for U87 cells of previously homolysed alkoxyamine” value in the data set on U87 cells [6] (same concentration, previously homolysed (72 h in culture medium), 1 h treatment) was “do not carry any toxicity”. Also, the “cells carrying activated caspases” value in the data set with U87 cells [7] (3 h, 1.5 mM) was found to be 92%. The caspase positive cells was found to be 88% with U87 cells [7] (24 h, 1 mM) and 80% in the data set with U87 cells [7] (72 h, 0.5 mM). In addition, the “caspase+ cells” value in the data set with U87 cells [7] (72 h, 0.25 mM) is “more than 40%”.
In the case of `N#CC(C#N)=NNc1cccc(Cl)c1` [CCCP, Carbonyl cyanide 3-chlorophenylhydrazone, reference compound], the “mitochondrial potential (TMRE)” value in the data set on U87 cells [2] (0.5 mM CCCP positive control, all incubation times) is reported as “expected drop of the mitochondrial potential”. In addition, the “accessibility of the cardiolipins to NAO” value with U87 cells [2] (0.5 mM CCCP, independently of incubation time) is on record as “either neutral or positive”.

Values taken from US10421725B2, “Alkoxyamines for the treatment of cancers” (Centre National De La Recherche Scientifique, priority 2013, dated 2019).
